Earlier results in patent US9750250B2, “Conjugated polyelectrolytes and methods of using the same” (STC.UNM, priority 2015, dated 2017).

Conditions: deuterated methanol

singlet oxygen quantum yield ΦΔ of the standard: 0.79±0.02
SMILES: CC(=O)c1ccc2ccccc2c1 [2′-acetonaphthone]
